The results in this text go back to article PMC8786932, “Bicyclic azetidines target acute and chronic stages of Toxoplasma gondii by inhibiting parasite phenylalanyl t-RNA synthetase” (Nature Communications, 2022).

By EC50 is commonly meant the concentration giving half of the maximal effect.

Assay [1] relates to T. gondii ME49-FLuc chronic infection. The assay is classed as in vivo, Ifngr1-/- mice. Particulars: for Days (survival time of single mouse) / Survival event flag of single mouse (1 or 0): Fig 6C. As to the method: (§1) Ifngr1^−/− (B6.129S7-Ifngr1 ^tm1Agt /J) and CBA/J mice were purchased from Jackson Laboratory and bred locally at Washington University. Animal studies were conducted according to the U.S. Public Health Service policy on human care and use of laboratory animals. Animals were maintained in facilities approved by the Association for Assessment and Accreditation of Laboratory Animal Care. Studies were approved by Division of Comparative Medicine, Washington University. […] Animals were maintained on a 12:12 light cycle, room temperature maintained at 70℉ ± 2℉, and room humidity maintained at 50% ± 20%.
(§2) Testing of compounds to prevent reactivation of chronic infection was […] to test the efficacy of PheRS inhibitors against chronic infection. In both cases, male and female C57BL/6 Ifngr1^−/− mice were infected by oral gavage with 5 cysts of the ME49-Fluc strain isolated from chronically infected CBA/J mice. […] Animals were monitored for survival and weight loss for 30 days post-treatment.

Assay [2] has as its system T. gondii ME49-FLuc tissue cysts. Format: in vivo, Ifngr1-/- mice. The method, then:
as §1, §2

Assay [3] relates to T. gondii RHΔhxgprtΔku80 (RHΔΔ). The experiment in a line: Tachyzoite lytic assay, wild-type parent. The assay is classed as cell-based, Toxoplasma gondii. The settings on record: for % Parasite Growth: RHΔΔ; for EC50: Toxoplasma gondii. As to the method: Parasite growth on HFF monolayers was monitored using a 96-well plate-based lytic assay modified from a previously described protocol. […]. Freshly harvested parasites (7.5 × 10^4 /well) were added to each well (in 100uL volume) to reach the final concentration range (10 μM to 0.0005 μM, 200 μL/well, 0.1% DMSO). Plates were incubated for 72 h at 37 °C then culture medium was aspirated and monolayers were fixed with 100% ethanol (ETOH) for 5 min at room temperature (RT). After rinsing with water, wells were stained with 0.1% crystal violet solution for 10 min at RT. Plates were rinsed with water, air dried, and absorption quantified on the Cytation 3 multi-mode imager at 570 nm wavelength. % parasite growth was calculated as 100−[(OD value for infected cultures at each concentration of compound/average OD value for no compound and no parasite infection) × 100]. EC50 values were calculated based on the mean of three biological replicates with each replicate containing two technical replicates.

In assay [4] the test system is T. gondii RHΔΔ TgPheRS[M484I]. Briefly: Tachyzoite lytic assay, M484I mutant. Format: cell-based. Particulars: Toxoplasma gondii. The method, then:
In vitro cultures of HFF cells containing mature vacuoles were scraped, passaged through 23 g blunt end needles, and filtered using 3 micron filters. Purified parasites were resuspended in 350 μL of cytomix plus[49] and combined in a BTX 4 mm gap cuvette with 30 μL of PCR amplified templates corresponding to mutations of interest and 10 μg of pSAG1:Cas9-GFP U6:sgTgPheRS^[mut] (in 20 μL, 400 μL total volume, see Supplementary Data 1 for sgRNA sequences) prior to electroporation using a BTX ETM 830 electroporator. Amplified templates for TgPheRS mutations were generated from gBlocks (Integrated DNA Technologies, Coralville, IA, USA) that contain a BclI restriction site that replaces the PAM sequence to protect the repair template from being cut by Cas9. […]
Parasite growth on HFF monolayers was monitored using a 96-well plate-based lytic assay modified from a previously described protocol. […] Plates were rinsed with water, air dried, and absorption quantified on the Cytation 3 multi-mode imager at 570 nm wavelength. % parasite growth was calculated as 100−[(OD value for infected cultures at each concentration of compound/average OD value for no compound and no parasite infection) × 100]. EC50 values were calculated based on the mean of three biological replicates with each replicate containing two technical replicates.

“And” between values parts separate entries of the source, which are not always exact repeats. Equal entries are not always repeated. Where two headings read alike, the source gives them in different places.

In the case of `COc1ccc(NC(=O)N2CCCCN3[C@H](CN(C)C)[C@H](c4ccc(C#Cc5ccccc5)cc4)[C@@H]3C2)cc1` [BRD7929], the “onset of death, reactivation model” value in assay [1] (10 mg/kg p.o. QD, 16 days) is “delayed onset of death”. The “survival vs vehicle, reactivation model” value in assay [1] (10 mg/kg p.o. once a day, 16 days, P = 0.0003, Mantel-Cox) is reported as “survived significantly longer”. Moreover, the “Days (survival of individual mice)” value in assay [1] (10 mg/kg, c3: 1 = death, 0 = survivor) is 10 days and 12 days and 24 days and 20 days and 30 days and 23 days and 22 days. Also, the “Days (survival time of single mouse)” value in assay [1] (10d-10 mg / kg) is 13 days and 29 days and 14 days and 17 days and 19 days and 16 days; in assay [1] (20d - 10 mg / kg, 10 mg/kg), 29 days and 17 days and 15 days and 20 days and 19 days and 22 days. Further, the “Survival event flag of single mouse (1 or 0)” value in assay [1] (10d-10 mg / kg) is 1 and 0; in assay [1] (20d - 10 mg / kg, 10 mg/kg), 0 and 1. Also, the “survival vs sulfadiazine, oral challenge model” value in assay [2] (10 mg/kg p.o. 20 days, P = 0.0487, Mantel-Cox) is listed as “survived significantly longer than sulfadiazine mice”. Besides, the mean survival in assay [2] (10 mg/kg p.o. QD for 10 days from 48 h post-challenge) was 16.5 days; in assay [2] (10 mg/kg p.o. QD for 20 days from 48 h post-challenge) it was 21 days. The “mice in which death was prevented” value in assay [2] (10 mg/kg p.o. QD, 20 days) was 3 of 8. For the same compound, the “animals cured by treatment, overall” value in assay [2] (10 day and 20 day cohorts together) is given as 4 of 16. Moreover, the “% Parasite Growth” value in assay [3] (3.33333333 uM, replicate wells) was -62.34% and -8.91% and -41.4% and -6.78% and -65.46% and -56.23% and -31.38% and -99.25% and -132.9% and -155.42% and -68.19% and -11.78%; in assay [3] (0.00152416 uM) it was 68.94% and 89.11% and 79.46% and 70.31% and 60.77%; in assay [3] (0.00457247 uM), 84.64% and 87.57% and 82.22% and 46.33% and 48.4%; in assay [3] (0.01371742 uM), 76.37% and 86.87% and 80.22% and 58.24% and 60.43%. Moreover, the EC50 was 82 nM in assay [3] (72 h, read-out: EC50, RHΔΔ); 53 nM in assay [3] (read-out: EC50, RHΔΔ); 36 nM in assay [3] (Table S4, Wild type, read-out: EC50 (growth restriction)); 93 nM in assay [4] (72 h, read-out: EC50, M484I); 65 nM in assay [4] (read-out: EC50 (growth restriction)).
